Measurements reported in article PMC6364417, “Kinase inhibitor library screening identifies synergistic drug combinations effective in sensitive and resistant melanoma cells” (Journal of Experimental & Clinical Cancer Research : CR, 2019).
Like-named read-outs stand apart in the source and are kept apart here.

Legend:
Test in all cases: Kinase inhibitor library screening, PrestoBlue cell viability, 1 or 10 μM, 72 h
[1] = test system: 501Mel cells (parental); details: for Cell viability in kinase inhibitor library screening, 501Mel Parental, 1μΜ / Cell viability in kinase inhibitor library screening, 501Mel Parental, 10μΜ: in %
Procedure, shortened: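 Two concentrations of every kinase inhibitor were tested on each melanoma line and its resistant counterparts, and cell survival was quantified by PrestoBlue against untreated wells.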

[2] = test system: 501Mel-GP cells (Dabrafenib-resistant); details: for Cell viability in kinase inhibitor library screening, 501Mel GP, 1μΜ / Cell viability in kinase inhibitor library screening, 501Mel GP, 10μΜ: in %
[3] = test system: 501Mel-XP cells (Vemurafenib-resistant); details: for Cell viability in kinase inhibitor library screening, 501Mel XP, 1μΜ / Cell viability in kinase inhibitor library screening, 501Mel XP, 10μΜ: in %
[4] = test system: A375 cells (parental)
[5] = test system: A375-GP cells (Dabrafenib-resistant)
[6] = test system: A375-XP cells (Vemurafenib-resistant)
[7] = test system: IGR37 cells (parental); details: for Cell viability in kinase inhibitor library screening, IGR37 Parental, 1μΜ / Cell viability in kinase inhibitor library screening, IGR37 Parental, 10μΜ: in %
[8] = test system: IGR37-GP cells (Dabrafenib-resistant); details: for Cell viability in kinase inhibitor library screening, IGR37 GP, 1μΜ: in %
[9] = test system: IGR37-XP cells (Vemurafenib-resistant); details: for Cell viability in kinase inhibitor library screening, IGR37 XP, 1μΜ: in %

CN1CCN(C2CCN(C(=O)Nc3cc(Oc4ccc(NC(=O)C5(C(=O)Nc6ccc(F)cc6)CC5)c(F)c4)ccn3)CC2)CC1 [Golvatinib (E7050)]
cell viability (kinase inhibitor library screening) ([1]; 501Mel Parental, 1μΜ, 72 h): 96.5% | cell viability (kinase inhibitor library screening) ([1]; 501Mel Parental, 10μΜ, 72 h): 0.148% | cell viability (kinase inhibitor library screening) ([2]; 501Mel GP, 1μΜ, 72 h): 81.2% | cell viability (kinase inhibitor library screening) ([2]; 501Mel GP, 10μΜ, 72 h): -0.26% | cell viability (kinase inhibitor library screening) ([3]; 501Mel XP, 1μΜ, 72 h): 66.2% | cell viability (kinase inhibitor library screening) ([3]; 501Mel XP, 10μΜ, 72 h): -0.363% | cell viability (kinase inhibitor library screening) ([4]; A375 Parental, 10μΜ, 72 h): 70.5% | cell viability (kinase inhibitor library screening) ([4]; A375 Parental, 1μΜ, 72 h): 93.1% | cell viability (kinase inhibitor library screening) ([5]; A375 GP, 1μΜ, 72 h): 103.0% | cell viability (kinase inhibitor library screening) ([5]; A375 GP, 10μΜ, 72 h): 53.0% | cell viability (kinase inhibitor library screening) ([6]; A375 XP, 1μΜ, 72 h): 99.6% | cell viability (kinase inhibitor library screening) ([6]; A375 XP, 10μΜ, 72 h): 65.0% | cell viability (kinase inhibitor library screening) ([7]; IGR37 Parental, 1μΜ, 72 h): 99.0% | cell viability (kinase inhibitor library screening) ([7]; IGR37 Parental, 10μΜ, 72 h): 18.3% | cell viability (kinase inhibitor library screening) ([8]; IGR37 GP, 1μΜ, 72 h): 92.1% | cell viability (kinase inhibitor library screening) ([8]; IGR37 GP, 10μΜ, 72 h): 49.6% | cell viability (kinase inhibitor library screening) ([9]; IGR37 XP, 1μΜ, 72 h): 95.2% | cell viability (kinase inhibitor library screening) ([9]; IGR37 XP, 10μΜ, 72 h): 10.4%

COc1ccc(S(=O)(=O)N(C(C)=O)c2ccccc2/C=C/c2cc[n+]([O-])cc2)cc1 [HMN-214]
Cell viability in kinase inhibitor library screening, 501Mel Parental, 1μΜ [1]: 17.6 | Cell viability in kinase inhibitor library screening, 501Mel Parental, 10μΜ [1]: 20.7 | Cell viability in kinase inhibitor library screening, 501Mel GP, 1μΜ [2]: 21.4 | Cell viability in kinase inhibitor library screening, 501Mel GP, 10μΜ [2]: 22.7 | Cell viability in kinase inhibitor library screening, 501Mel XP, 1μΜ [3]: 14.9 | Cell viability in kinase inhibitor library screening, 501Mel XP, 10μΜ [3]: 12.4 | Cell viability in kinase inhibitor library screening, A375 Parental, 1μΜ [4]: 34.0 | Cell viability in kinase inhibitor library screening, A375 Parental, 10μΜ [4]: 23.3 | Cell viability in kinase inhibitor library screening, A375 GP, 1μΜ [5]: 42.6 | Cell viability in kinase inhibitor library screening, A375 GP, 10μΜ [5]: 20.9 | Cell viability in kinase inhibitor library screening, A375 XP, 1μΜ [6]: 37.9 | Cell viability in kinase inhibitor library screening, A375 XP, 10μΜ [6]: 18.1 | Cell viability in kinase inhibitor library screening, IGR37 Parental, 1μΜ [7]: 19.8 | Cell viability in kinase inhibitor library screening, IGR37 Parental, 10μΜ [7]: 16.1 | Cell viability in kinase inhibitor library screening, IGR37 GP, 10μΜ [8]: 66.9% | Cell viability in kinase inhibitor library screening, IGR37 GP, 1μΜ [8]: 69.1 | Cell viability in kinase inhibitor library screening, IGR37 XP, 10μΜ [9]: 28.3% | Cell viability in kinase inhibitor library screening, IGR37 XP, 1μΜ [9]: 57.1

CNC(=O)c1ccc(-c2cnc3ncc(Cc4ccc5ncccc5c4)n3n2)cc1F [INCB28060]
cell viability (kinase inhibitor library screening) ([1]; 501Mel Parental, 1μΜ, 72 h): 99.4% | cell viability (kinase inhibitor library screening) ([1]; 501Mel Parental, 10μΜ, 72 h): 93.5% | cell viability (kinase inhibitor library screening) ([2]; 501Mel GP, 1μΜ, 72 h): 81.7% | cell viability (kinase inhibitor library screening) ([2]; 501Mel GP, 10μΜ, 72 h): 67.0% | cell viability (kinase inhibitor library screening) ([3]; 501Mel XP, 1μΜ, 72 h): 68.2% | cell viability (kinase inhibitor library screening) ([3]; 501Mel XP, 10μΜ, 72 h): 62.9% | cell viability (kinase inhibitor library screening) ([4]; A375 Parental, 1μΜ, 72 h): 103.1% | cell viability (kinase inhibitor library screening) ([5]; A375 GP, 1μΜ, 72 h): 103.9% | cell viability (kinase inhibitor library screening) ([5]; A375 GP, 10μΜ, 72 h): 95.7% | cell viability (kinase inhibitor library screening) ([6]; A375 XP, 1μΜ, 72 h): 106.9% | cell viability (kinase inhibitor library screening) ([6]; A375 XP, 10μΜ, 72 h): 103.3% | cell viability (kinase inhibitor library screening) ([7]; IGR37 Parental, 1μΜ, 72 h): 106.9% | cell viability (kinase inhibitor library screening) ([7]; IGR37 Parental, 10μΜ, 72 h): 100.3% | cell viability (kinase inhibitor library screening) ([8]; IGR37 GP, 1μΜ, 72 h): 97.1% | cell viability (kinase inhibitor library screening) ([8]; IGR37 GP, 10μΜ, 72 h): 85.7% | cell viability (kinase inhibitor library screening) ([9]; IGR37 XP, 1μΜ, 72 h): 98.3% | cell viability (kinase inhibitor library screening) ([9]; IGR37 XP, 10μΜ, 72 h): 47.6%

CC(C)n1nc(-c2ccc3oc(N)nc3c2)c2c(N)ncnc21 [INK 128]
Cell viability in kinase inhibitor library screening, 501Mel Parental, 1μΜ ([1]; 501Mel Parental, 1μΜ, 72 h): 15.4 | Cell viability in kinase inhibitor library screening, 501Mel Parental, 10μΜ ([1]; 501Mel Parental, 10μΜ, 72 h): 5.9 | Cell viability in kinase inhibitor library screening, 501Mel GP, 1μΜ ([2]; 501Mel GP, 1μΜ, 72 h): 17.2 | Cell viability in kinase inhibitor library screening, 501Mel GP, 10μΜ ([2]; 501Mel GP, 10μΜ, 72 h): 6.6 | Cell viability in kinase inhibitor library screening, 501Mel XP, 1μΜ ([3]; 501Mel XP, 1μΜ, 72 h): 11.6 | Cell viability in kinase inhibitor library screening, 501Mel XP, 10μΜ ([3]; 501Mel XP, 10μΜ, 72 h): 2.4 | Cell viability in kinase inhibitor library screening, A375 Parental, 10μΜ ([4]; A375 Parental, 10μΜ, 72 h): 13.5 | Cell viability in kinase inhibitor library screening, A375 Parental, 1μΜ ([4]; A375 Parental, 1μΜ, 72 h): 19.9 | Cell viability in kinase inhibitor library screening, A375 GP, 1μΜ ([5]; A375 GP, 1μΜ, 72 h): 21.6 | Cell viability in kinase inhibitor library screening, A375 GP, 10μΜ ([5]; A375 GP, 10μΜ, 72 h): 13.0 | Cell viability in kinase inhibitor library screening, A375 XP, 1μΜ ([6]; A375 XP, 1μΜ, 72 h): 19.9 | Cell viability in kinase inhibitor library screening, A375 XP, 10μΜ ([6]; A375 XP, 10μΜ, 72 h): 12.7 | Cell viability in kinase inhibitor library screening, IGR37 Parental, 1μΜ ([7]; IGR37 Parental, 1μΜ, 72 h): 22.4 | Cell viability in kinase inhibitor library screening, IGR37 Parental, 10μΜ ([7]; IGR37 Parental, 10μΜ, 72 h): 13.5 | Cell viability in kinase inhibitor library screening, IGR37 GP, 10μΜ ([8]; IGR37 GP, 10μΜ, 72 h): 16.8% | Cell viability in kinase inhibitor library screening, IGR37 GP, 1μΜ ([8]; IGR37 GP, 1μΜ, 72 h): 44.7 | Cell viability in kinase inhibitor library screening, IGR37 XP, 10μΜ ([9]; IGR37 XP, 10μΜ, 72 h): 6.1% | Cell viability in kinase inhibitor library screening, IGR37 XP, 1μΜ ([9]; IGR37 XP, 1μΜ, 72 h): 27.3
